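Compound exposure: 48 hours, 5 concentrations, 96-well plates. Here, GI50 denotes the concentration required for 50% inhibition of growth.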 Active and inactive are the calls of the source. No stated cut-off is given here; in the data, active = GI50 up to about 1.1 µM and inactive = higher.
Assays:
Experiment in all cases: NCI-60 cell line screen, 48 h
[1] = system: CAKI-1
[2] = system: OVCAR-5
[3] = system: LOX IMVI
[4] = system: SK-MEL-2
[5] = system: SK-MEL-5
[6] = system: HCT-116
[7] = system: A498
[8] = system: NCI/ADR-RES
[9] = system: RXF 393
[10] = system: UO-31
[11] = system: EKVX
[12] = system: SW-620
[13] = system: NCI-H522
[14] = system: SK-OV-3
[15] = system: 786-0
[16] = system: Malme-3M
[17] = system: RPMI-8226
[18] = system: SNB-19
[19] = system: ACHN
[20] = system: HT-29

Measured: GI50

O=C(O)/C(=C\c1ccccc1)Cc1ccccc1
inactive: [1] > 100 µM | [2] > 100 µM | [3] > 100 µM | [4] > 100 µM | [5] > 100 µM | [6] > 100 µM | [7] > 100 µM | [8] > 100 µM | [9] > 100 µM | [10] > 100 µM | [11] > 100 µM | [12] > 100 µM | [13] > 100 µM | [14] > 100 µM | [15] > 100 µM | [16] > 100 µM | [17] > 100 µM | [18] > 100 µM | [19] > 100 µM | [20] > 100 µM

CC(C)c1ccc(/C(C(=O)O)=C(\O)C(=O)O)cc1
inactive: [1] > 100 µM | [2] > 100 µM | [3] > 100 µM | [4] > 100 µM | [5] > 100 µM | [6] > 100 µM | [7] > 100 µM | [8] > 100 µM | [9] > 100 µM | [10] > 100 µM | [11] > 100 µM | [12] > 100 µM | [13] > 100 µM | [14] > 100 µM | [15] > 100 µM | [16] > 100 µM | [17] > 100 µM | [18] > 100 µM | [19] > 100 µM | [20] > 100 µM

C=CCN(CCNS(=O)(=O)c1ccc(C)cc1)S(=O)(=O)c1ccc(C)cc1
inactive: [1] 87.9 µM | [2] 58.2 µM | [3] 17.3 µM | [4] 34 µM | [5] 6.17 µM | [6] 34.2 µM | [7] 6.07 µM | [8] > 60.5 µM | [9] > 67.6 µM | [10] > 50.2 µM | [11] 31.9 µM | [12] > 82.2 µM | [13] 12.9 µM | [14] 12.9 µM | [15] 61.8 µM | [16] 36.1 µM | [17] 24.6 µM | [18] > 76.6 µM | [19] 13.6 µM | [20] 9.77 µM

Cc1ccc(C(=O)/C=C(O)/C(O)=C/C(=O)c2ccc(C)cc2C)c(C)c1
inactive: [1] 2.07 µM | [2] 2.06 µM | [3] 2.16 µM | [4] 1.87 µM | [5] 1.75 µM | [6] 2.32 µM | [7] 2.04 µM | [8] 1.92 µM | [9] 2.02 µM | [10] 1.36 µM | [11] 2.34 µM | [12] 2.37 µM | [13] 1.64 µM | [14] 1.94 µM | [15] 2.03 µM | [16] 1.86 µM | [17] 2.01 µM | [18] 2.49 µM | [19] 1.84 µM | [20] 2.48 µM

CC1(C)CCCCCC(O)C(O)CCC(C)(C)C1=O (stereo not given)
inactive: [1] > 100 µM | [2] > 100 µM | [3] > 100 µM | [4] > 100 µM | [5] > 100 µM | [6] > 100 µM | [7] > 100 µM | [8] > 100 µM | [9] > 100 µM | [10] > 100 µM | [11] > 100 µM | [12] > 100 µM | [13] 83.9 µM | [14] > 100 µM | [15] > 100 µM | [16] > 100 µM | [17] > 100 µM | [18] > 100 µM | [19] > 100 µM | [20] > 100 µM

O=C(NCCc1ccccn1)c1ccc2cc(C(=O)N3CC(CCl)c4ccc([N+](=O)[O-])cc43)[nH]c2c1 (stereo not given)
inactive: [1] > 24.2 µM | [2] 97.9 µM | [3] > 100 µM | [4] > 100 µM | [5] > 61.5 µM | [6] > 70.3 µM | [7] > 57.7 µM | [8] 26.1 µM | [9] 7.66 µM | [10] > 49.8 µM | [11] 47.4 µM | [12] > 100 µM | [13] 9.82 µM | [14] 10.6 µM | [15] 9.64 µM | [16] 10.9 µM | [17] > 100 µM | [18] 12.1 µM | [19] 36.6 µM | [20] > 100 µM

CC(=O)N1c2ccccc2C(C)C1c1[nH]c2ccccc2c1C (stereo not given)
inactive: [1] 22.8 µM | [2] 14.9 µM | [3] 26.1 µM | [4] 17.7 µM | [5] 13.7 µM | [6] 16.5 µM | [7] 22.7 µM | [8] 24.1 µM | [9] 13 µM | [10] 17.2 µM | [11] 18.1 µM | [12] 27.5 µM | [13] 15.9 µM | [14] 19.7 µM | [15] 19.9 µM | [16] 39.7 µM | [17] 13 µM | [18] 31.6 µM | [19] 32.3 µM | [20] 20.2 µM
